Holding throughout (test): EC50 assay: Ba/F3 stable cell proliferation (CCK-8, 72 h)
Common to all, as to assay type: cell-based

For assay [1], the target named is T1, Ba/F3 stable cells (Homo sapiens, UniProt P00533, DUP767-769, cells depend on it).
T1 construct: EC50 Ba/F3-EGFR V769-D770insASV; other: Ba/F3-EGFR V769-D770insASV cells, 72 h, CCK-8
The following applies: Ba/F3-EGFR V769-D770insASV cells. In outline:
(§1)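 Ba/F3 stable cells were seeded at 4,000 cells/90 μL/well in 96-well plates and held 2 h at 37° C. in 5% CO2, then given 10 μL of serially titrated compound (0.1% DMSO final). After 72 h at 37° C., CCK-8 reagent was added for 4 hours and absorbance read at 450 nm to derive EC50.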

The target in assay [2] is T2, Ba/F3 stable cells (Homo sapiens, UniProt P00533, DUP768-770, cells depend on it).
T2 construct: EC50 Ba/F3-EGFR D770-N771insSVD; other: Ba/F3-EGFR D770-N771insSVD cells, 72 h, CCK-8
The following applies: Ba/F3-EGFR D770-N771insSVD cells. In outline: as §1

Assay [3] addresses T3, Ba/F3 stable cells (Homo sapiens, UniProt P00533, DUP771-773, cells depend on it).
T3 construct: EC50 Ba/F3-EGFR H773-V774insNPH; other: Ba/F3-EGFR H773-V774insNPH cells, 72 h, CCK-8
Conditions: Ba/F3-EGFR H773-V774insNPH cells. The procedure, abridged:
as §1

The target of assay [4] is T4, Ba/F3 stable cells (Homo sapiens, UniProt P00533, INS763FQEA, cells depend on it).
T4 construct: EC50 Ba/F3-EGFR A763-Y764insFQEA; other: Ba/F3-EGFR A763-Y764insFQEA cells, 72 h, CCK-8
Conditions: Ba/F3-EGFR A763-Y764insFQEA cells. In outline:
as §1

Assay [5] concerns the target T5, Ba/F3 stable cells (Homo sapiens, UniProt P00533, T790M/L858R, cells depend on it).
T5 construct: EC50 Ba/F3-EGFR L858R-T790M; other: Ba/F3-EGFR L858R-T790M cells, 72 h, CCK-8
The following applies: Ba/F3-EGFR L858R-T790M cells. In outline: as §1

Assay [6] deals with T6, Ba/F3 stable cells (Homo sapiens, UniProt P04626, DUP772-775, cells depend on it).
T6 construct: EC50 Ba/F3-HER2 A775-G776insYVMA; other: Ba/F3-HER2 A775-G776insYVMA cells, 72 h, CCK-8
T6 sequence (P04626 with tags, fused parts or gaps DUP772-775): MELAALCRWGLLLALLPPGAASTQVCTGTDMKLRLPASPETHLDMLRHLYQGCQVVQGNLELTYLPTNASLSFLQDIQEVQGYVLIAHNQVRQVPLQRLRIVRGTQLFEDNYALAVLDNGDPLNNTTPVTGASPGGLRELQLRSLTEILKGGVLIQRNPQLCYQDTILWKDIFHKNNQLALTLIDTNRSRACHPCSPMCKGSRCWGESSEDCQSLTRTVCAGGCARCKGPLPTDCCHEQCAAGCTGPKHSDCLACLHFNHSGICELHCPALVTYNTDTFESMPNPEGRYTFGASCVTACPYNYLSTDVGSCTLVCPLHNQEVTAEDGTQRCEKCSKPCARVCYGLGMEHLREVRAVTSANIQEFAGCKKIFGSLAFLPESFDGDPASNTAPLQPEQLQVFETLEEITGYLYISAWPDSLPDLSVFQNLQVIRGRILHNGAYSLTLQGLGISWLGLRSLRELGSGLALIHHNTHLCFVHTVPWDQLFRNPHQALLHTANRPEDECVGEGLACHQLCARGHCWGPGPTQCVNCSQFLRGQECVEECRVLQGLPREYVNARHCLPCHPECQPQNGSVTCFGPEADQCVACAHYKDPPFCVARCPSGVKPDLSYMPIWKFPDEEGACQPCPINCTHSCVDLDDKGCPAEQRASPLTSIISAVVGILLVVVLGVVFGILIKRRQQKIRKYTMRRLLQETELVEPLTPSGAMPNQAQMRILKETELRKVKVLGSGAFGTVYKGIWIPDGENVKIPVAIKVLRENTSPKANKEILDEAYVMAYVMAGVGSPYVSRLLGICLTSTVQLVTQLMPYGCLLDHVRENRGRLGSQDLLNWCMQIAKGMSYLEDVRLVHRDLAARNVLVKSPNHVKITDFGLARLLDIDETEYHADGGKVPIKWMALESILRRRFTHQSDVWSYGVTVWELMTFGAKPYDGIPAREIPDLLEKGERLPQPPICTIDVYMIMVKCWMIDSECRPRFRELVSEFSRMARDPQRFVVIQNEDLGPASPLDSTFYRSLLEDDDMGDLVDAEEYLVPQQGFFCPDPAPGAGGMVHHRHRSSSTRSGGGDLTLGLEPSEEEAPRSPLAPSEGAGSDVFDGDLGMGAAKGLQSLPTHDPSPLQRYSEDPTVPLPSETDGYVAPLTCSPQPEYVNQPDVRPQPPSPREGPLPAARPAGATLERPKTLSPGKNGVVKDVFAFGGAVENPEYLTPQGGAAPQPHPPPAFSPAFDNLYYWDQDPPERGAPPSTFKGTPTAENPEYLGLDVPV
Conditions: Ba/F3-HER2 A775-G776insYVMA cells. In outline: as §1

Bounds are passed on as bounds.

The EC50 is the concentration at which the effect is half-maximal. A higher EC50 goes with lower potency in that assay.

T3 sequence (P00533 with tags, fused parts or gaps DUP771-773): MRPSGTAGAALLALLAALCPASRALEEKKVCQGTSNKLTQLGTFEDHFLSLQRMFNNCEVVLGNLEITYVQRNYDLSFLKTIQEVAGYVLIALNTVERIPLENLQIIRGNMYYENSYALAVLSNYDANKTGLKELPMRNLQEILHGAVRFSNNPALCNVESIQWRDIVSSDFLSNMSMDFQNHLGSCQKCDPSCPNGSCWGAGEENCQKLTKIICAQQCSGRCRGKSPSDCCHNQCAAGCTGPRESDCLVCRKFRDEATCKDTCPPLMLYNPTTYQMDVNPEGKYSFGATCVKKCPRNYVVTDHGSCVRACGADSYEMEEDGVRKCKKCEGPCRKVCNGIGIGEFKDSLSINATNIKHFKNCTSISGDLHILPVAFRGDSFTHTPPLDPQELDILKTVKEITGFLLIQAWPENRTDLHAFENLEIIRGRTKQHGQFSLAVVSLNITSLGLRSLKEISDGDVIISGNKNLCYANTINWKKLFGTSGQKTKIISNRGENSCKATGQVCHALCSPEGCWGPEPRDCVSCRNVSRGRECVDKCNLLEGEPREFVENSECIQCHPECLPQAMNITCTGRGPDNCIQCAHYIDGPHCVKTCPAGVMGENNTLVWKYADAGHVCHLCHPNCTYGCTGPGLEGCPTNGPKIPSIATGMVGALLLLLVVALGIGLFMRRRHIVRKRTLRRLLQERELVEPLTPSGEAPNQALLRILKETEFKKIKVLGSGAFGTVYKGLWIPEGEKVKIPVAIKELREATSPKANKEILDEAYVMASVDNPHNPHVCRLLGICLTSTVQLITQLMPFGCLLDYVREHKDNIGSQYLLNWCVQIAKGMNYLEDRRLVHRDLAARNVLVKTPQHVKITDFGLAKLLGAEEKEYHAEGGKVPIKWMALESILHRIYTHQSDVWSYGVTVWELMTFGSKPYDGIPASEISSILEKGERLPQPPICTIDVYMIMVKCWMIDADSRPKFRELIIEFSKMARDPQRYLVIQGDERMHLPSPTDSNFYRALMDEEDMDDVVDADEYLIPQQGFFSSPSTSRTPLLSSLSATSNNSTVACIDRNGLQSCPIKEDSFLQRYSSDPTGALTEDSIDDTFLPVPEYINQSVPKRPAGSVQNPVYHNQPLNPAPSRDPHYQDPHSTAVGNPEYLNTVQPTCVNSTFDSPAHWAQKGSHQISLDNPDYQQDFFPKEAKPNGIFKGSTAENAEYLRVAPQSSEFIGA
T5 sequence (P00533 whole entry T790M/L858R): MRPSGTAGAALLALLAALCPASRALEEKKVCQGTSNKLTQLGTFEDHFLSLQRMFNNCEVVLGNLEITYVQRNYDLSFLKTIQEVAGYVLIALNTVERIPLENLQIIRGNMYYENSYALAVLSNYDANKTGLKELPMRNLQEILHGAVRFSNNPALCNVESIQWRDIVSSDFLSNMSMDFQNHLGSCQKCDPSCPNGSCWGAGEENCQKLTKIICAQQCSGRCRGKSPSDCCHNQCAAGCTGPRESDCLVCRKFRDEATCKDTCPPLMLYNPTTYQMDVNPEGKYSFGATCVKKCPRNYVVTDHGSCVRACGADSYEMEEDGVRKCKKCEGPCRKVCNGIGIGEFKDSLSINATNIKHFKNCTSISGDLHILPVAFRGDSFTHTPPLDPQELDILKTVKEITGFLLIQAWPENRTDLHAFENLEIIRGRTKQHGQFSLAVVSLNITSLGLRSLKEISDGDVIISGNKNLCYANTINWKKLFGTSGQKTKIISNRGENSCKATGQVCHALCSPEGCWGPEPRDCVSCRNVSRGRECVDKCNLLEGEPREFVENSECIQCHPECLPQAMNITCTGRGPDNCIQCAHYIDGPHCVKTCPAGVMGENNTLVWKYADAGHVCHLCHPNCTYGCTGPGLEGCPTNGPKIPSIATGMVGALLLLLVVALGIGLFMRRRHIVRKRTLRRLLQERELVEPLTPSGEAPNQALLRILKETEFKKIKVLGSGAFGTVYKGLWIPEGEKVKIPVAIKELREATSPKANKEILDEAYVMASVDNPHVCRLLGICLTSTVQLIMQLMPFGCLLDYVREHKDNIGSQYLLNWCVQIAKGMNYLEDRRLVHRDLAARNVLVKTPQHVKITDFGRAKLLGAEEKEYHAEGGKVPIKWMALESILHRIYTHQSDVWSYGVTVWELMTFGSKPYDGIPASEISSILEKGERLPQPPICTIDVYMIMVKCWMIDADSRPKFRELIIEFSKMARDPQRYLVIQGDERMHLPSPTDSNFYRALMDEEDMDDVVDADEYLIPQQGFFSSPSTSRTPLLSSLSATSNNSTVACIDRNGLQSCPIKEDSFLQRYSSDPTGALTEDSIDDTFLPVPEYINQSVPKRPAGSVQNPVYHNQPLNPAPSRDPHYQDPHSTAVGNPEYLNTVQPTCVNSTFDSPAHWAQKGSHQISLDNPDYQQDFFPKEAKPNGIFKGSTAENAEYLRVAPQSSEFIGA
T1 sequence (P00533 with tags, fused parts or gaps DUP767-769): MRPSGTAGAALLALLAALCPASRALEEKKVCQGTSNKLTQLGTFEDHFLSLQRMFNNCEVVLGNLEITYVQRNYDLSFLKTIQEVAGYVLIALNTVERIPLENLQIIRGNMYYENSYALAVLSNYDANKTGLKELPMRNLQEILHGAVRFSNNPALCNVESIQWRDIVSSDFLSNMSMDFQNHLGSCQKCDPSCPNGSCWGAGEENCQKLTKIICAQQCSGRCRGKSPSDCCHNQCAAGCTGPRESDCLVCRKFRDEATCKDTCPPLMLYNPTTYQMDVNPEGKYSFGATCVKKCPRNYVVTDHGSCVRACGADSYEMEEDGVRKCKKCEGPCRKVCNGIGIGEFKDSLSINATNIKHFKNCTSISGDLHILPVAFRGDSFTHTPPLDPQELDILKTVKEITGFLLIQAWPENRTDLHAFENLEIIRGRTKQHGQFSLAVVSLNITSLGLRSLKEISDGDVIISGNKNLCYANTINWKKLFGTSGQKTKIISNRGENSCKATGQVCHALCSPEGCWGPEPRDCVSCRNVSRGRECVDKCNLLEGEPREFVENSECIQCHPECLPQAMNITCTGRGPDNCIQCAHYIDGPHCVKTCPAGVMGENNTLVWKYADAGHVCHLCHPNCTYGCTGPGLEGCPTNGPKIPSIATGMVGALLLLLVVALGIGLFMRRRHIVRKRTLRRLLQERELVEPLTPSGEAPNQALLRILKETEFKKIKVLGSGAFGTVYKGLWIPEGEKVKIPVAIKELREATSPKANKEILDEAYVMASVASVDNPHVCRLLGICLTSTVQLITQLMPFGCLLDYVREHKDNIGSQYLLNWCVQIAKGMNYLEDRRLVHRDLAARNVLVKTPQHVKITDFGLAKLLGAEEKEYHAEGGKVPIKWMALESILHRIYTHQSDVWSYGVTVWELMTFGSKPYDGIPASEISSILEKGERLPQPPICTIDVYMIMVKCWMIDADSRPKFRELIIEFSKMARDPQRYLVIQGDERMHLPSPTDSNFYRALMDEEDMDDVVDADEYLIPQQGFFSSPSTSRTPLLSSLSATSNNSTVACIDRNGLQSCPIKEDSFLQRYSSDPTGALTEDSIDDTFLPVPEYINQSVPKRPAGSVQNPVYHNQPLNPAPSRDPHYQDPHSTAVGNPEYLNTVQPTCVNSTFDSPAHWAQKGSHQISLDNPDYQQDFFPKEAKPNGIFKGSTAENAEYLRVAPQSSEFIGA

For `C=C(F)C(=O)N1CCC(Oc2cc3c(Nc4ccc(Cl)c(Cl)c4F)ncnc3cc2OC)CC1` [Compound 50, 1-(4-((4-((3,4-dichloro-2-fluorophenyl)amino)-7-methoxyquinazolin-6-yl)oxy)piperidin-1-yl)-2-fluoroprop-2-en-1-one], the EC50 is no more than 200 nM on Ba/F3 stable cells [1]; greater than 1000 nM on Ba/F3 stable cells [2]; 200 to 1000 nM on Ba/F3 stable cells [3]; no more than 200 nM at Ba/F3 stable cells [4]; greater than 1000 nM at Ba/F3 stable cells [5]; 200 to 1000 nM at Ba/F3 stable cells [6].

Take `C#CC(=O)N1CCC(Oc2cc3c(Nc4ccc(Cl)c(Cl)c4F)ncnc3cc2OC)CC1` [Compound 52, 1-(4-((4-((3,4-dichloro-2-fluorophenyl)amino)-7-methoxyquinazolin-6-yl)oxy)piperidin-1-yl)prop-2-yn-1-one]: the EC50 was no more than 200 nM on Ba/F3 stable cells [1]; no more than 200 nM on Ba/F3 stable cells [2]; no more than 200 nM on Ba/F3 stable cells [3]; no more than 200 nM at Ba/F3 stable cells [4]; no more than 200 nM at Ba/F3 stable cells [5]; 200 to 1000 nM at Ba/F3 stable cells [6].

Regarding `C#CC(=O)N1CCC(Oc2cc3c(Nc4ccc5ccccc5c4)ncnc3cc2OC)CC1` [Compound 53, 1-(4-((7-methoxy-4-(naphthalen-2-ylamino)quinazolin-6-yl)oxy)piperidin-1-yl)prop-2-yn-1-one], the EC50 on Ba/F3 stable cells [1], on Ba/F3 stable cells [2], at Ba/F3 stable cells [3], on Ba/F3 stable cells [4], at Ba/F3 stable cells [5] and on Ba/F3 stable cells [6] was no more than 200 nM each time.

For `C#CC(=O)N1CCC(Oc2cc3c(Nc4cccc5ccccc45)ncnc3cc2OC)CC1` [Compound 54, 1-(4-((7-methoxy-4-(naphthalen-1-ylamino)quinazolin-6-yl)oxy)piperidin-1-yl)prop-2-yn-1-one], the EC50 at Ba/F3 stable cells [1], on Ba/F3 stable cells [2], at Ba/F3 stable cells [3], on Ba/F3 stable cells [4], at Ba/F3 stable cells [5] and on Ba/F3 stable cells [6] was no more than 200 nM in each case.

For `C#CC(=O)N1C2CCC1CC(Oc1cc3c(Nc4cccc5c4CCC5)ncnc3cc1OC)C2` (stereo not drawn) [Compound 56, 1-(3-((4-((2,3-dihydro-1H-inden-4-yl)amino)-7-methoxyquinazolin-6-yl)oxy)-8-azabicyclo[3.2.1]octan-8-yl)prop-2-yn-1-one], the EC50 was no more than 200 nM at Ba/F3 stable cells [1]; 200 to 1000 nM on Ba/F3 stable cells [2]; no more than 200 nM on Ba/F3 stable cells [3]; no more than 200 nM on Ba/F3 stable cells [4]; 200 to 1000 nM at Ba/F3 stable cells [5]; 200 to 1000 nM on Ba/F3 stable cells [6].

With `C#CC(=O)N1C2CCCC1CC(Oc1cc3c(Nc4cccc5ccccc45)ncnc3cc1OC)C2` (stereo not drawn) [Compound 57, 1-(3-((7-methoxy-4-(naphthalen-1-ylamino)quinazolin-6-yl)oxy)-9-azabicyclo[3.3.1]nonan-9-yl)prop-2-yn-1-one], the EC50 at Ba/F3 stable cells [1], on Ba/F3 stable cells [2], on Ba/F3 stable cells [3], at Ba/F3 stable cells [4], at Ba/F3 stable cells [5] and on Ba/F3 stable cells [6] was no more than 200 nM in each case.

As for `C#CC(=O)N1C2CCCC1CC(Oc1cc3c(Nc4ccc5ccccc5c4)ncnc3cc1OC)C2` (stereo not drawn) [Compound 58, 1-(3-((7-methoxy-4-(naphthalen-2-ylamino)quinazolin-6-yl)oxy)-9-azabicyclo[3.3.1]nonan-9-yl)prop-2-yn-1-one], the EC50 on Ba/F3 stable cells [1] was no more than 200 nM; on Ba/F3 stable cells [2], 200 to 1000 nM; on Ba/F3 stable cells [3], no more than 200 nM; at Ba/F3 stable cells [4], no more than 200 nM; at Ba/F3 stable cells [5], no more than 200 nM; at Ba/F3 stable cells [6], no more than 200 nM.

Consider `C#CC(=O)N1C2CCC1CC(Oc1cc3c(Nc4ccc5ccccc5c4)ncnc3cc1OC)C2` (stereo not drawn) [Compound 59, 1-(3-((7-methoxy-4-(naphthalen-2-ylamino)quinazolin-6-yl)oxy)-8-azabicyclo[3.2.1]octan-8-yl)prop-2-yn-1-one], for which the EC50 was no more than 200 nM at Ba/F3 stable cells [1]; 200 to 1000 nM at Ba/F3 stable cells [2]; no more than 200 nM on Ba/F3 stable cells [3]; no more than 200 nM on Ba/F3 stable cells [4]; no more than 200 nM at Ba/F3 stable cells [5]; 200 to 1000 nM on Ba/F3 stable cells [6].

For `C#CC(=O)N1C2CCC1CC(Oc1cc3c(Nc4cccc5ccccc45)ncnc3cc1OC)C2` (stereo not drawn) [Compound 60, 1-(3-((7-methoxy-4-(naphthalen-1-ylamino)quinazolin-6-yl)oxy)-8-azabicyclo[3.2.1]octan-8-yl)prop-2-yn-1-one], the EC50 is no more than 200 nM on Ba/F3 stable cells [1]; 200 to 1000 nM on Ba/F3 stable cells [2]; no more than 200 nM at Ba/F3 stable cells [3]; no more than 200 nM on Ba/F3 stable cells [4]; no more than 200 nM on Ba/F3 stable cells [5]; 200 to 1000 nM on Ba/F3 stable cells [6].

In the case of `C#CC(=O)N1CCCC(c2ccc3ncnc(Nc4ccc(Cl)c(Cl)c4F)c3c2)C1` (stereo not drawn) [Compound 61, 1-(3-(4-((3,4-dichloro-2-fluorophenyl)amino)quinazolin-6-yl)piperidin-1-yl)prop-2-yn-1-one], the EC50 on Ba/F3 stable cells [1] was no more than 200 nM; at Ba/F3 stable cells [2], no more than 200 nM; at Ba/F3 stable cells [3], no more than 200 nM; on Ba/F3 stable cells [4], no more than 200 nM; on Ba/F3 stable cells [5], no more than 200 nM; at Ba/F3 stable cells [6], 200 to 1000 nM.

As to `C#CC(=O)N1CCC=C(c2ccc3ncnc(Nc4ccc(Cl)c(Cl)c4F)c3c2)C1` [Compound 62, 1-(5-(4-((3,4-dichloro-2-fluorophenyl)amino)quinazolin-6-yl)-3,6-dihydropyridin-1(2H)-yl)prop-2-yn-1-one], the EC50 on Ba/F3 stable cells [1] is 200 to 1000 nM; at Ba/F3 stable cells [2] it was 200 to 1000 nM; at Ba/F3 stable cells [3], 200 to 1000 nM; on Ba/F3 stable cells [4], no more than 200 nM; on Ba/F3 stable cells [5], 200 to 1000 nM; at Ba/F3 stable cells [6], 200 to 1000 nM.

As to `C#CC(=O)N1CCC=C(c2cc3c(Nc4ccc(Cl)c(Cl)c4F)ncnc3cc2OC)C1` [Compound 63, 1-(5-(4-((3,4-dichloro-2-fluorophenyl)amino)-7-methoxyquinazolin-6-yl)-3,6-dihydropyridin-1(2H)-yl)prop-2-yn-1-one], the concentration giving a half-maximal response (EC50) at Ba/F3 stable cells [1] is no more than 200 nM; at Ba/F3 stable cells [2], no more than 200 nM; at Ba/F3 stable cells [3], no more than 200 nM; on Ba/F3 stable cells [4] it was no more than 200 nM; at Ba/F3 stable cells [5], no more than 200 nM; on Ba/F3 stable cells [6], 200 to 1000 nM.

For `C=CC(=O)N[C@H]1C[C@@H](Oc2cc3c(Nc4ccc(Cl)c(Cl)c4F)ncnc3cc2OC)C1` [Compound 66, N-((1s,3s)-3-((4-((3,4-dichloro-2-fluorophenyl)amino)-7-methoxyquinazolin-6-yl)oxy)cyclobutyl)acrylamide], the EC50 at Ba/F3 stable cells [1] was no more than 200 nM; on Ba/F3 stable cells [2], 200 to 1000 nM; at Ba/F3 stable cells [3], no more than 200 nM; on Ba/F3 stable cells [4], no more than 200 nM; on Ba/F3 stable cells [5], no more than 200 nM; on Ba/F3 stable cells [6] it was no more than 200 nM.

With `C=CC(=O)NC1CC(Oc2cc3c(Nc4ccc(C)c5c4CCC5)ncnc3cc2OC)C1` (stereo not drawn) [Compound 67, N-(3-((7-methoxy-4-((7-methyl-2,3-dihydro-1H-inden-4-yl)amino)quinazolin-6-yl)oxy)cyclobutyl)acrylamide], the EC50 at Ba/F3 stable cells [1] is greater than 1000 nM; at Ba/F3 stable cells [2] it was greater than 1000 nM; on Ba/F3 stable cells [3], greater than 1000 nM; on Ba/F3 stable cells [4], 200 to 1000 nM; on Ba/F3 stable cells [5], greater than 1000 nM; on Ba/F3 stable cells [6], greater than 1000 nM.

Take `C=CC(=O)NC1CC(Oc2cc3c(Nc4ccc(F)c5c4CCC5=O)ncnc3cc2OC)C1` (stereo not drawn) [Compound 68, N-(3-((4-((7-fluoro-1-oxo-2,3-dihydro-1H-inden-4-yl)amino)-7-methoxyquinazolin-6-yl)oxy)cyclobutyl)acrylamide]: the EC50 at Ba/F3 stable cells [1], on Ba/F3 stable cells [2], on Ba/F3 stable cells [3], at Ba/F3 stable cells [4], on Ba/F3 stable cells [5] and at Ba/F3 stable cells [6] was greater than 1000 nM throughout.

The values above are taken from patent US20250243171A1, “QUINAZOLINE COMPOUNDS FOR TREATMENT OF DISEASE” (Arthrosi Therapeutics, Inc., priority 2021, published 2025).
